Values joined by “and” are separate entries in the source; they are usually repeats but may differ in a detail not shown here. Equal entries are not always repeated. Where two headings read alike, the source gives them in different places.
Key:
[1] = Single dose tolerability and pharmacokinetic trials, Japan and Ex-Japan; format: in vivo, Japanese (Japan) and European (Ex-Japan) subjects; conditions: for CL/F: single dose, least squares mean
Description: A total of 76 European subjects and 38 Japanese subjects participated in the single and multiple dose tolerability and food effect trials. Three of the studies were Ex-Japan studies and included doses ranging from 10 mg to 1000 mg. The other two studies were conducted in Japan and included doses ranging from 50 mg to 600 mg.
(§1) The Ex-Japan trials included (i) a single dose tolerability trial, and (ii) a multiple dose tolerability trial, and (iii) a food effect study.
(§2) Both single dose and multiple dose tolerability trials were conducted in Japan utilizing healthy male Japanese subjects. […] Six subjects who received the 100 mg dose also participated in the food effect treatment arm of the single dose tolerability trial.
Combining single dose fasting pharmacokinetic data from all five studies, an analysis of variance with factors for country (Japan, Ex-Japan), study nested within country, and dose were performed on the dose-normalized Cmax and AUC values to assess the effect of country (population). Dose normalization was done to the lowest dose (10 mg for single dose, 100 mg for multiple dose). In the absence of intravenous data, the distribution volume (V/F) and clearance (CL/F) parameters are represented as the apparent values and are normalized to 70 kg of body weight. There were no statistically significant differences between the Japan and Ex-Japan trials in any of the pharmacokinetic parameters analyzed.
No statistically significant differences were noted between the Japan and ex-Japan population for any of the derived parameters evaluated.
(§3) Each panel consisted of six subjects who were given eplerenone and two subjects who were given placebo.

saline-drinking SHRSP = test: Stroke and cerebrovascular damage in saline-drinking SHRSP; format: in vivo, rats; conditions: 100 mg/kg/day
Source text: Fifteen male, 9 weeks of age, saline-drinking SHRSP were included in the experiment.

[2] = Food effect pharmacokinetic studies, Japan and Ex-Japan; format: in vivo, Japanese (Japan) and European (Ex-Japan) subjects
Description: as §1, §2
Table A-11C contains the geometric least squares means for the fed and fasting regimens, the ratios of means and the corresponding 95% confidence intervals (CI) for the ratios of the means for the Japan and Ex-Japan food effect trials.
as §3

[3] = Pharmacokinetics and tolerability in subjects with moderate hepatic impairment vs normal healthy subjects; format: in vivo, human subjects; conditions: for AUC(0-t): read-out: AUC (0-lqc), Least Squares Mean; for AUC(0-inf): read-out: AUC (0-∞), Least Squares Mean
[4] = test system: aortas of New Zealand white rabbits on normal or 1 % cholesterol chow; test: Endothelial function (isometric tension, superoxide generation) of aortas in diet induced atherosclerosis; format: in vivo; conditions: for % NTG (peak relaxation to nitroglycerin) / %Ach (peak relaxation to acetylcholine): eplerenone 50 mg/kg twice daily; for %Ach (peak relaxation to acetylcholine): 6 weeks; for O2 counts: lucigenin chemiluminescence
Description: Methods: New Zealand white rabbits were randomized to four treatment groups. 32 Rabbits were placed on normal (NC) or 1 % cholesterol chow (HC) for a duration of 8 weeks. […] Rabbits were euthanized at the end of 8 weeks and the aortas extracted for isometric tension studies and estimation of superoxide (O2^-) generation in vessel segments by lucigenin chemiluminescence (250 µM). Vessels were preconstricted with phenylephrine (3 x 10^-7) to approximately 50% of peak constriction and dose responses to acetylcholine (Ach) and nitroglycerin (NTG) tested.

[5] = test system: L-NAME/ANG-II-induced renal injury in rats; conditions: cited from earlier work
[6] = Form H content of dried solids by X-ray powder diffraction (XPRD); format: physicochemical
[7] = test system: Volume Expanded Hypertensive Rats; conditions: averaged for 24 hours after three weeks
[8] = human, in vivo, 400 mg, Single Dose, Moderate Impairment
[9] = human, in vivo, 400 mg, Single Dose, Normal

COC(=O)[C@@H]1CC2=CC(=O)CC[C@]2(C)[C@@]23O[C@@H]2C[C@@]2(C)[C@@H](CC[C@@]24CCC(=O)O4)[C@H]13 [Eplerenone, Pregn-4-ene-7,21-dicarboxylic acid, 9,11-epoxy-17-hydroxy-3-oxo-, γ-lactone, methyl ester, (7α, 11α, 17β)-]
adverse events ([1]; healthy Japanese male subjects, single doses 50-600 mg): no adverse events were reported | CL/F ([1]; human, blood, po, Ex-Japan, read-out: CL/F (converted)): 228 mL/min | CL/F ([1]; human, blood, po, Japan, read-out: CL/F (converted)): 230 mL/min | CL/F ([1]; Ex-Japan): 14.44 L/hr/70 kg | CL/F ([1]; Japan): 13.52 L/hr/70 kg | proteinuria (saline-drinking SHRSP): 38 ± 18 mg/day | severe hypertension (SBP) (saline-drinking SHRSP; Figure A-12): 237 ± 3 mmHg | signs of stroke (saline-drinking SHRSP; n=7): no signs of stroke up to 18.5 weeks of age | AUC (0-lqc), Mean Ratio ([2]; Ex-Japan Food Effect Study): 1.079 | Cmax, Mean Ratio (fed/fasted) ([2]; Ex-Japan Food Effect Study): 0.814 | AUC (0-inf), Mean Ratio ([2]; Japan Food Effect Study): 1.218 | AUC (0-lqc), Mean Ratio ([2]; Japan Food Effect Study): 1.218 | Cmax, Mean Ratio (fed/fasted) ([2]; Japan Food Effect Study): 1.157 | AUC (0-inf), Mean Ratio ([2]; human, in vivo): 1.079 | AUC greater among subjects with moderate hepatic impairment than matched normal subjects ([3]; 400 mg, single dosing, b445 and b448 state it for single and multiple dose): 41-50% | Ratio of Means AUC (0-24)/AUC0-co) ([3]; Moderate Hepatic Impairment): 0.95 | AUC (0-24), Ratio of Means Moderate/Normal ([3]; Multiple Dose): 1.456 | CL/F, Ratio of Means Moderate/Normal ([3]; Multiple Dose): 0.687 | Cmax, Ratio of Means Moderate/Normal ([3]; Multiple Dose): 1.037 | XU(0-48), Ratio of Means Moderate/Normal ([3]; Multiple Dose): 2.007 | XU(0-48), Least Squares Mean ([3]; Multiple Dose, Moderate Impairment): 14.9 mg | XU(0-48), Least Squares Mean ([3]; Multiple Dose, Normal): 7.4 mg | Ratio of Means AUC (0-24)/AUC0-co) ([3]; Normal): 1.02 | AUC (0-lqc), Ratio of Means Moderate/Normal ([3]; Single Dose): 1.413 | AUC (0-∞), Ratio of Means Moderate/Normal ([3]; Single Dose): 1.497 | CL/.F, Ratio of Means Moderate/Normal ([3]; Single Dose): 0.668 | Cmax, Ratio of Means Moderate/Normal ([3]; Single Dose): 0.894 | XU(0-48), Ratio of Means Moderate/Normal ([3]; Single Dose): 1.016 | XU(0-48), Least Squares Mean ([3]; Single Dose, Moderate Impairment): 7.9 mg | XU(0-48), Least Squares Mean ([3]; Single Dose, Normal): 7.8 mg | AUC higher in moderate impairment compared to matched normal subjects ([3]; following multiple dosing 400 mg QD): 46% | AUC tau at 24 h ([3]; human, in vivo, 400 mg, Multiple Dose, Moderate Impairment, read-out: AUC (0-24), Least Squares Mean): 43800 ng·h/mL | CL/F ([3]; human, in vivo, 400 mg, Multiple Dose, Moderate Impairment, read-out: CL/F, Least Squares Mean (converted)): 152 mL/min | CL/F ([3]; human, in vivo, 400 mg, Multiple Dose, Moderate, read-out: CL/F, Mean (converted)): 149 mL/min | AUC tau at 24 h ([3]; human, in vivo, 400 mg, Multiple Dose, Normal, read-out: AUC (0-24), Least Squares Mean): 30100 ng·h/mL | CL/F ([3]; human, in vivo, 400 mg, Multiple Dose, Normal, read-out: CL/F, Least Squares Mean (converted)): 222 mL/min | CL/F ([3]; human, in vivo, 400 mg, Multiple Dose, Normal, read-out: CL/F, Mean (converted)): 230 mL/min | Tmax ([3]; human, in vivo, 400 mg, Multiple Dose, Normal, read-out: Tmax, Least Squares Mean): 2.1 h | AUC(0-t) [3, 8]: 42800 ng·h/mL | AUC(0-inf) [3, 8]: 43600 ng·h/mL | CL/F ([3]; human, in vivo, 400 mg, Single Dose, Moderate Impairment, read-out: CL/.F, Least Squares Mean (converted)): 153 mL/min | CL/F ([3]; human, in vivo, 400 mg, Single Dose, Moderate, read-out: CL/F, Mean (converted)): 175 mL/min | AUC(0-t) [3, 9]: 30300 ng·h/mL | AUC(0-inf) [3, 9]: 29100 ng·h/mL | CL/F ([3]; human, in vivo, 400 mg, Single Dose, Normal, read-out: CL/.F, Least Squares Mean (converted)): 228 mL/min | CL/F ([3]; human, in vivo, 400 mg, Single Dose, Normal, read-out: CL/F, Mean (converted)): 254 mL/min | AUC tau at 24 h ([3]; human, in vivo, 400 mg, linear kinetics assessment, Moderate Hepatic Impairment, read-out: Multiple Dose AUC (0-24), Least Squares Mean): 47200 ng·h/mL | AUC tau at 24 h ([3]; human, in vivo, 400 mg, linear kinetics assessment, Normal, read-out: Multiple Dose AUC (0-24), Least Squares Mean): 29300 ng·h/mL | subjects with adverse events ([3]; subjects with moderate hepatic impairment): 44% | subjects with adverse events ([3]; subjects with normal hepatic function): 35% | % NTG (peak relaxation to nitroglycerin) ([4]; 1 % cholesterol chow (HC)): 112±4% | %Ach (peak relaxation to acetylcholine) ([4]; 1 % cholesterol chow (HC)): 82±6 % | O2 counts ([4]; 1 % cholesterol chow (HC)): 1400±504 per mg of dry weight | % NTG (peak relaxation to nitroglycerin) ([4]; normal chow (NC)): 107±2% | %Ach (peak relaxation to acetylcholine) ([4]; normal chow (NC)): 97±3% | O2 counts ([4]; normal chow (NC)): 1110±373 per mg of dry weight | L-NAME/ANG-II-induced renal injury [5]: prevents L-NAME/ANG-II-induced renal injury | Weight Percent Form H (XPRD) ([6]; cooling rate (0) 1.5°C/min, cooling endpoint (0) 25°C, impurity level (0) 100.8% purity starting material (footnote as printed), replicate runs): <3% Weight Percent and 5 Weight Percent | Weight Percent Form H (XPRD) ([6]; cooling rate (+) 3°C/min, cooling endpoint (-) 5°C, impurity level (+) 89.3% purity starting material): 9 Weight Percent | HR ([7]; 100 mg/kg s.c.): 352 ± 4 beats/min | SAP ([7]; 100 mg/kg s.c.): 155 ± 7 mmHg | HR ([7]; 200 mg/kg s.c.): 339 ± 4 beats/min | SAP ([7]; 200 mg/kg s.c.): 174 ± 5 mmHg
